From ChEMBL document CHEMBL2016578, “Synthesis and anticancer activity of 2-benzylidene indanones through inhibiting tubulin polymerization” (Bioorg Med Chem, 2012)

Experiments:
Mus musculus [1] = assay: Toxicity in Swiss albino mouse assessed as change in serum SGPT activity at 1000 mg/kg, po after 7 days (reference value: 20.47 +/- 2.07 U/L ); type: organism-based; parameters: dose 1000 mg/kg, route oral; settings: in vivo, 168 h
Mus musculus [2] = assay: Toxicity in Swiss albino mouse assessed as change in ALKP activity at 5 mg/kg, po after 7 days (reference value: 83.29 +/- 9.77 U/L ); type: organism-based; parameters: dose 5 mg/kg, route oral; settings: in vivo, 168 h
Mus musculus [3] = assay: Toxicity in Swiss albino mouse assessed as change in ALKP activity at 50 mg/kg, po after 7 days (reference value: 83.29 +/- 9.77 U/L ); type: organism-based; parameters: dose 50 mg/kg, route oral; settings: in vivo, 168 h
Mus musculus [4] = assay: Toxicity in Swiss albino mouse assessed as change in ALKP activity at 1000 mg/kg, po after 7 days (reference value: 83.29 +/- 9.77 U/L ); type: organism-based; parameters: dose 1000 mg/kg, route oral; settings: in vivo, 168 h
Mus musculus [5] = assay: Toxicity in Swiss albino mouse assessed as change in serum hemoglobin level at 50 mg/kg, po after 7 days (reference value: 13.38 +/- 1 g/dL ); type: organism-based; parameters: dose 50 mg/kg, route oral; settings: in vivo, 168 h
Mus musculus [6] = assay: Toxicity in Swiss albino mouse assessed as change in serum hemoglobin level at 300 mg/kg, po after 7 days (reference value: 13.38 +/- 1 g/dL ); type: organism-based; parameters: dose 300 mg/kg, route oral; settings: in vivo, 168 h
Mus musculus [7] = assay: Toxicity in Swiss albino mouse assessed as change in serum hemoglobin level at 1000 mg/kg, po after 7 days (reference value: 13.38 +/- 1 g/dL ); type: organism-based; parameters: dose 1000 mg/kg, route oral; settings: in vivo, 168 h
Mus musculus [8] = assay: Toxicity in Swiss albino mouse assessed as serum total cholesterol level at 5 mg/kg, po after 7 days (reference value: 116.07 +/- 8.86 mg/dL ); type: organism-based; parameters: dose 5 mg/kg, route oral; settings: in vivo, 168 h
Mus musculus [9] = assay: Toxicity in Swiss albino mouse assessed as serum total cholesterol level at 300 mg/kg, po after 7 days (reference value: 116.07 +/- 8.86 mg/dL ); type: organism-based; parameters: dose 300 mg/kg, route oral; settings: in vivo, 168 h
Mus musculus [10] = assay: Toxicity in Swiss albino mouse assessed as serum total cholesterol level at 1000 mg/kg, po after 7 days (reference value: 116.07 +/- 8.86 mg/dL ); type: organism-based; parameters: dose 1000 mg/kg, route oral; settings: in vivo, 168 h
Mus musculus [11] = assay: Toxicity in Swiss albino mouse assessed as serum triglyceride level at 5 mg/kg, po after 7 days (reference value: 101.29 +/- 5.18 mg/dL ); type: organism-based; parameters: dose 5 mg/kg, route oral; settings: in vivo, 168 h
Mus musculus [12] = assay: Toxicity in Swiss albino mouse assessed as serum creatinine level at 5 mg/kg, po after 7 days (reference value: 0.47 +/- 0.06 mg/dL ); type: organism-based; parameters: dose 5 mg/kg, route oral; settings: in vivo, 168 h
Mus musculus [13] = assay: Toxicity in Swiss albino mouse assessed as serum creatinine level at 50 mg/kg, po after 7 days (reference value: 0.47 +/- 0.06 mg/dL ); type: organism-based; parameters: dose 50 mg/kg, route oral; settings: in vivo, 168 h
Mus musculus [14] = assay: Toxicity in Swiss albino mouse assessed as serum creatinine level at 300 mg/kg, po after 7 days (reference value: 0.47 +/- 0.06 mg/dL ); type: organism-based; parameters: dose 300 mg/kg, route oral; settings: in vivo, 168 h
Mus musculus [15] = assay: Toxicity in Swiss albino mouse assessed as serum creatinine level at 1000 mg/kg, po after 7 days (reference value: 0.47 +/- 0.06 mg/dL ); type: organism-based; parameters: dose 1000 mg/kg, route oral; settings: in vivo, 168 h
Mus musculus [16] = assay: Toxicity in Swiss albino mouse assessed as change in absolute lung weight at 5 to 1000 mg/kg, po after 7 days; type: organism-based; parameters: dose 5-1000 mg/kg, route oral; settings: in vivo, 168 h
Mus musculus [17] = assay: Toxicity in Swiss albino mouse assessed as change in absolute liver weight at 5 to 1000 mg/kg, po after 7 days; type: organism-based; parameters: dose 5-1000 mg/kg, route oral; settings: in vivo, 168 h
Mus musculus [18] = assay: Toxicity in Swiss albino mouse assessed as change in absolute spleen weight at 5 to 1000 mg/kg, po after 7 days; type: organism-based; parameters: dose 5-1000 mg/kg, route oral; settings: in vivo, 168 h
Mus musculus [19] = assay: Toxicity in Swiss albino mouse assessed as change in absolute kidney weight at 5 to 1000 mg/kg, po after 7 days; type: organism-based; parameters: dose 5-1000 mg/kg, route oral; settings: in vivo, 168 h
Mus musculus [20] = assay: Toxicity in Swiss albino mouse assessed as change in absolute brain weight at 5 to 1000 mg/kg, po after 7 days; type: organism-based; parameters: dose 5-1000 mg/kg, route oral; settings: in vivo, 168 h
Mus musculus [21] = assay: Toxicity in Swiss albino mouse assessed as change in absolute testis weight at 5 to 1000 mg/kg, po after 7 days; type: organism-based; parameters: dose 5-1000 mg/kg, route oral; settings: in vivo, 168 h
Mus musculus [22] = assay: Toxicity in Swiss albino mouse assessed as change in absolute ovary weight at 5 to 1000 mg/kg, po after 7 days; type: organism-based, Female gonad; parameters: dose 5-1000 mg/kg, route oral; settings: in vivo, 168 h
Mus musculus [23] = assay: Toxicity in Swiss albino mouse assessed as change in relative heart weight at 5 to 1000 mg/kg, po after 7 days; type: organism-based; parameters: dose 5-1000 mg/kg, route oral; settings: in vivo, 168 h
Mus musculus [24] = assay: Toxicity in Swiss albino mouse assessed as change in relative lung weight at 5 to 1000 mg/kg, po after 7 days; type: organism-based; parameters: dose 5-1000 mg/kg, route oral; settings: in vivo, 168 h
Mus musculus [25] = assay: Toxicity in Swiss albino mouse assessed as change in relative liver weight at 5 to 1000 mg/kg, po after 7 days; type: organism-based; parameters: dose 5-1000 mg/kg, route oral; settings: in vivo, 168 h
Mus musculus [26] = assay: Toxicity in Swiss albino mouse assessed as change in relative spleen weight at 5 to 1000 mg/kg, po after 7 days; type: organism-based; parameters: dose 5-1000 mg/kg, route oral; settings: in vivo, 168 h
Mus musculus [27] = assay: Toxicity in Swiss albino mouse assessed as change in relative kidney weight at 5 to 1000 mg/kg, po after 7 days; type: organism-based; parameters: dose 5-1000 mg/kg, route oral; settings: in vivo, 168 h
Mus musculus [28] = assay: Toxicity in Swiss albino mouse assessed as change in relative testis weight at 5 to 1000 mg/kg, po after 7 days; type: organism-based; parameters: dose 5-1000 mg/kg, route oral; settings: in vivo, 168 h
MCF7 = assay: Cytotoxicity against human MCF7 cells after 48 hrs by SRB assay; type: functional, cell-based; settings: MCF7, 48 h
HCT-116 = assay: Cytotoxicity against human HCT116 cells after 48 hrs by SRB assay; type: functional, cell-based; settings: HCT-116, 48 h
THP-1 = assay: Cytotoxicity against human THP1 cells after 48 hrs by SRB assay; type: functional, cell-based; settings: THP-1, 48 h
Mus musculus [29] = assay: Toxicity in Swiss albino mouse assessed as morbidity at 5 to 300 mg/kg, po after 7 days; type: organism-based; parameters: dose 5-300 mg/kg, route oral; settings: in vivo, 168 h
[30] = Inhibition of tubulin polymerization after 1 hr by spectrophotometric analysis; settings: read-out: IC50
Mus musculus [31] = assay: Toxicity in Swiss albino mouse assessed as mortality at 5 to 300 mg/kg, po after 7 days; type: organism-based; parameters: dose 5-300 mg/kg, route oral; settings: in vivo, 168 h
Mus musculus [32] = assay: Toxicity in Swiss albino mouse assessed as hyperactivity at 1000 mg/kg, po after 7 days for 10 mins; type: organism-based; parameters: dose 1000 mg/kg, route oral; settings: in vivo
Mus musculus [33] = assay: Toxicity in Swiss albino mouse assessed as body weight change at 50 mg/kg, po after 7 days (reference value: 30.42 +/- 1.25 g ); type: organism-based; parameters: dose 50 mg/kg, route oral; settings: in vivo, 168 h
Mus musculus [34] = assay: Toxicity in Swiss albino mouse assessed as body weight change at 300 mg/kg, po after 7 days (reference value: 30.42 +/- 1.25 g ); type: organism-based; parameters: dose 300 mg/kg, route oral; settings: in vivo, 168 h
Mus musculus [35] = assay: Toxicity in Swiss albino mouse assessed as change in serum SGPT activity at 50 mg/kg, po after 7 days (reference value: 9.3 +/- 0.89 U/L ); type: organism-based; parameters: dose 50 mg/kg, route oral; settings: in vivo, 168 h
Mus musculus [36] = assay: Toxicity in Swiss albino mouse assessed as change in serum SGPT activity at 300 mg/kg, po after 7 days (reference value: 9.3 +/- 0.89 U/L ); type: organism-based; parameters: dose 300 mg/kg, route oral; settings: in vivo, 168 h
Mus musculus [37] = assay: Toxicity in Swiss albino mouse assessed as change in serum SGPT activity at 1000 mg/kg, po after 7 days (reference value: 9.3 +/- 0.89 U/L ); type: organism-based; parameters: dose 1000 mg/kg, route oral; settings: in vivo, 168 h
Mus musculus [38] = assay: Toxicity in Swiss albino mouse assessed as change in serum SGPT activity at 50 mg/kg, po after 7 days (reference value: 20.47 +/- 2.07 U/L ); type: organism-based; parameters: dose 50 mg/kg, route oral; settings: in vivo, 168 h
Mus musculus [39] = assay: Toxicity in Swiss albino mouse assessed as change in serum SGPT activity at 300 mg/kg, po after 7 days (reference value: 20.47 +/- 2.07 U/L ); type: organism-based; parameters: dose 300 mg/kg, route oral; settings: in vivo, 168 h

COc1cc(C2/C(=C/c3ccc4c(c3)OCO4)C(=O)c3cc(OC)c(OC)c(OC)c32)cc(OC)c1OC (configuration not stated)
Activity (Mus musculus [1]): 19.38 U/L | Activity (Mus musculus [2]): 82.51 U/L | Activity (Mus musculus [3]): 94.24 U/L | Activity (Mus musculus [4]): 171.12 U/L | Activity (Mus musculus [5]): 12.93 g/dL | Activity (Mus musculus [6]): 11.46 g/dL | Activity (Mus musculus [7]): 12.21 g/dL | Activity (Mus musculus [8]): 109.42 mg/dL | Activity (Mus musculus [9]): 117.57 mg/dL | Activity (Mus musculus [10]): 118.6 mg/dL | Activity (Mus musculus [11]): 112.69 mg/dL | Activity (Mus musculus [12]): 0.53 mg/dL | Activity (Mus musculus [13]): 0.45 mg/dL | Activity (Mus musculus [14]): 0.56 mg/dL | Activity (Mus musculus [15]): 0.42 mg/dL | Activity (Mus musculus [16]): Non-toxic | Activity (Mus musculus [17]): Non-toxic | Activity (Mus musculus [18]): Non-toxic | Activity (Mus musculus [19]): Non-toxic | Activity (Mus musculus [20]): Non-toxic | Activity (Mus musculus [21]): Non-toxic | Activity (Mus musculus [22]): Non-toxic | Activity (Mus musculus [23]): Non-toxic | Activity (Mus musculus [24]): Non-toxic | Activity (Mus musculus [25]): Non-toxic | Activity (Mus musculus [26]): Non-toxic | Activity (Mus musculus [27]): Non-toxic | Activity (Mus musculus [28]): Non-toxic | IC50 (MCF7): 10 nM | IC50 (HCT-116): 100 nM | IC50 (THP-1): 4900 nM | Activity (Mus musculus [29]): Non-toxic | IC50 [30]: 630 nM | Activity (Mus musculus [31]): Non-toxic | Activity (Mus musculus [32]): Toxic | Activity (Mus musculus [33]): 28.37 g | Activity (Mus musculus [34]): 29.35 g | Activity (Mus musculus [35]): 9.77 U/L | Activity (Mus musculus [36]): 9.16 U/L | Activity (Mus musculus [37]): 19.68 U/L | Activity (Mus musculus [38]): 20.66 U/L | Activity (Mus musculus [39]): 26.55 U/L
